Measurements published in patent US20020160986A1, “Compounds having activity as inhibitors of cytochrome P450RAI” (priority 2000, published 2002).
Like-named read-outs stand apart in the source and are kept apart here.

Key:
skin of hairless mice = settings: topical in acetone, once daily days 1 through 5, mean ±SD, range 0-21
Source text: This irritation is a direct result of activation of the RAR nuclear receptors. Analysis of retinoid topical irritation is also a highly reproducible method of determining in vivo retinoid potency. The SKH1-hrBR or hairless mouse provides a convenient animal model of topical irritation, since retinoid-induced skin flaking and abrasion can be readily scored by eye (Standeven et al., “Specific antagonist of retinoid toxicity in mice.” Toxicol. Appl. Pharmacol., 138:169-175, (1996); Thacher, et al., “Receptor specificity of retinoid-induced hyperplasia. Effect of RXR-selective agonists and correlation with topical irritation”. J. Pharm. Exp. Ther., 282:528-534, (1997)).
Female hairless mice (Crl:SKH1-hrBR), 5-7 weeks old, were obtained from Charles River Breeding Labs (Wilmington, Mass.). […]
The mice were weighed daily and the dorsal skin was graded daily using separate semi-quantitative scales to determine flaking and abrasion. […]
Flaking onset score (2) and average severity score (3) are summed and divided by two. […] Composite flaking scores are calculated for each individual animal in a group, averaged, and rounded to the nearest integer. […]
Abrasion onset score (5) and average severity score (6) are summed and divided by two. […] Composite abrasion scores are calculated for each individual animal in a group, averaged and rounded to the nearest integer. […]

RARβ = target: T1, RARβ (Homo sapiens, UniProt P10826); test: ligand binding assay, RARβ; settings: read-out: RAR β Kd
T1 sequence (P10826 1-455): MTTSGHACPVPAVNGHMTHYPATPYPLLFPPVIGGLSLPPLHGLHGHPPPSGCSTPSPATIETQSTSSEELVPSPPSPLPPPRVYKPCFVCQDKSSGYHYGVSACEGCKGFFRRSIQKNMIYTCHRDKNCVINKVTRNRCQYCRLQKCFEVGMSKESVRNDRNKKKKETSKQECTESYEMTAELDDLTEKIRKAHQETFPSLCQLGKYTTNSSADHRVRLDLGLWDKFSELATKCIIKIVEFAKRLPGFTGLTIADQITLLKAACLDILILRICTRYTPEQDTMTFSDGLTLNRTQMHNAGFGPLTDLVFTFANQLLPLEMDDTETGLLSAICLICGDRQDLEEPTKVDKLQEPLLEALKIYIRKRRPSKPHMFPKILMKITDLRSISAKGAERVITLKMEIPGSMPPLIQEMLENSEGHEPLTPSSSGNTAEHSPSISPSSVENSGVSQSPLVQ
Source text: (§1) Assays described below measure the ability of a compound to bind to, and/or activate various retinoid receptor subtypes. When in these assays a compound binds to a given receptor subtype and activates the transcription of a reporter gene through that subtype, then the compound is considered an agonist of that receptor subtype. […] In the below described assays the ability of the compounds to bind to RAR60 , RAR62 , RARγ, RXR60 , RXR62 , and RXRγ receptors, and the ability or inability of the compounds to activate transcription of a reporter gene through these receptor subtypes can be tested.
A holoreceptor transactivation assay and a ligand binding assay which measure the antagonist/agonist like activity of the compounds of the invention, or their ability to bind to the several retinoid receptor subtypes, respectively, are described in published PCT Application No. WO WO93/11755 (particularly on pages 30-33 and 37-41) published on Jun. 24, 1993, the specification of which is also incorporated herein by reference. […] The results obtained in this assay are expressed in EC50 numbers, as they are also in the chimeric receptor transactivation assay. The results of ligand binding assay are expressed in Kd numbers. (See Cheng et al. Biochemical Pharmacology Vol. 22 pp 3099-3108, expressly incorporated herein by reference.)

[1] = target: T2, P450RAI-1 stably transfected HeLa cells (Homo sapiens, UniProt O43174); test: P450RAI-1 cell-based inhibitor assay; settings: inhibition of all-trans-RA metabolism, [3H]-RA, 3 hours at 37° C.; read-out: P450RAI INHIBITION DATA INTACT HELA IC50
T2 construct: expressed in transfected cells; host or cells: HeLa cells, stably transfected, hygromycin selection
T2 sequence (O43174 1-497): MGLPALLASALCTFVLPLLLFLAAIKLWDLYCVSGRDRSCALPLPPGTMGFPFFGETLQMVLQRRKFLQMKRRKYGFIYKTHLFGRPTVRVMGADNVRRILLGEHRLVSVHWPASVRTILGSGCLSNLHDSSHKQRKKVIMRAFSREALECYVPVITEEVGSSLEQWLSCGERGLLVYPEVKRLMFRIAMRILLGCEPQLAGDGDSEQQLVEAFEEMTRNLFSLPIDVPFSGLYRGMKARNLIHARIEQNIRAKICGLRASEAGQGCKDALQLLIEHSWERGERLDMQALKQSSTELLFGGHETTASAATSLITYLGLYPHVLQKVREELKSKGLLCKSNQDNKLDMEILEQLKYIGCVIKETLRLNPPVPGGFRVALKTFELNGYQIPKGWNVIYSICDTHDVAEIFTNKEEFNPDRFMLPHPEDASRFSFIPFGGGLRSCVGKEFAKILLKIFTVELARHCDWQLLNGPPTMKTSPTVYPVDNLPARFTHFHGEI
Experimental: P450RAI-1 Cell-Based Inhibitor Assay:
P450RAI -1 stably transfected HeLa cells are maintained in […] tissue culture dishes in Modified Eagle's Medium (MEM) containing 10% Fetal Bovine Serum (FBS) and 100 μg/ml hygromycin. Exponentially growing cells are harvested by incubating in trypsin. Cells are then washed with 1× Phosphate Buffered Saline (PBS) and plated in a 48-well plate at 5×10^5 cells in 0.2 ml MEM medium containing 10% FBS and 0.05 μCi [^3H]-RA in the presence or absence of increasing concentrations of the test compounds. The compounds are diluted in 100% DMSO and then added in triplicate wells at either 10, 1 or 0.1 μM final concentration. As a positive control for RA metabolism inhibition, cells are also incubated with ketoconazole at 100, 10 and 1 μM. Cell are incubated for 3 hours at 37° C. […] The water soluble radioactivity is quantified using a β-scintillation counter. IC50 values represent the concentration of inhibitor required to inhibit all-trans-RA metabolism by 50 percent and are derived manually from log-transformed data.

RARα = target: T3, RARα (Homo sapiens, UniProt P10276); test: ligand binding assay, RARα; settings: read-out: RAR α Kd
T3 sequence (P10276 1-462): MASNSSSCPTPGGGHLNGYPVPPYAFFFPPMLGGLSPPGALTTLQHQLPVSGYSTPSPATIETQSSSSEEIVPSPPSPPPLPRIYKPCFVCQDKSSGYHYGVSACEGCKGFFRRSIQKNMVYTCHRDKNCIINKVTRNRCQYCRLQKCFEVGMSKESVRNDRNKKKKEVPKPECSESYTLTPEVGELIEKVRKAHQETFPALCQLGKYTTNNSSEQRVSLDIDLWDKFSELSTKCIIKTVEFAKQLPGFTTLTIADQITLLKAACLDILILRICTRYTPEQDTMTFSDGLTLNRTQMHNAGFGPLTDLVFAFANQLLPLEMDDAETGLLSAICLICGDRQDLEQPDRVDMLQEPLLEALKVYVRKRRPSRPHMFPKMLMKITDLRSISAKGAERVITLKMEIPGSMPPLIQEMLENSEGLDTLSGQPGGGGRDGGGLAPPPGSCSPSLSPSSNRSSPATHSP
Source text: as §1
A holoreceptor transactivation assay and a ligand binding assay which measure the antagonist/agonist like activity of the compounds of the invention, or their ability to bind to the several retinoid receptor subtypes, respectively, are described in published PCT Application No. WO WO93/11755 (particularly on pages 30-33 and 37-41) published on Jun. 24, 1993, the specification of which is also incorporated herein by reference. A detailed experimental procedure for holoreceptor transactivations has been described by Heyman et al. Cell 68,397-406, (1992); Allegretto et al. J. Biol. Chem. 268,26625-26633, and Mangelsdorf et al. The Retinoids: Biology, Chemistry and Medicine, pp 319-349, Raven Press Ltd., New York, which are expressly incorporated herein by reference. […]

Row | Kd (RARβ) [µM] | IC50 [1] [nM] | Kd (RARα) [µM] | SMILES | Cutaneous Toxicity Score (Blackjack Score) (skin of hairless mice; 100 nmole (nmol/25 g)) | Cutaneous Toxicity Score (Blackjack Score) (skin of hairless mice; 1000 nmole (nmol/25 g))
1 |  |  |  | CC1(C)CCC(=O)c2ccc(C#Cc3ccc(CC(=O)O)c(F)c3)cc21 [Compound 15, [2-Fluoro-4-(8.8-dimethyl-5-oxo-5,6,7,8-tetrahydro-naphthalene-2-yl-ethynyl)phenyl]-acetic acid] | 1 ± 1 | 5 ± 2
2 | > 100 | 180 | > 10 | Cc1cc(C#Cc2ccc(CC(=O)O)cc2)ccc1Cn1ccnc1 [Compound 121, [4-(4-Imidazol-1-yl-methyl-3-methyl-phenylethynyl)-phenyl]-acetic acid] |  | 
